In one data set the target is T1, α4β7 receptor (Homo sapiens, UniProt P13612+P26010).
T1 construct: endogenous in cells; host or cells: lymphocytes of patients with CD or UC (in vivo)
The experiment in a line: pharmacodynamics (α4β7 receptor saturation) after multiple-dose administration. The format is in vivo. To be noted: following the initial dose. How it is done: (§1) In previous studies, single-dose pharmacokinetics, pharmacodynamics (α4β7 receptor saturation), safety, and tolerability of vedolizumab were investigated over a dose range of 0.2 to 10 mg/kg in healthy volunteers (intravenous [IV] infusion) (unpublished data). After reaching peak concentrations, vedolizumab serum concentrations fell in a generally biexponential fashion until concentrations reached approximately 1 to 10 ng/mL. Thereafter, concentrations appeared to fall in a nonlinear fashion. The multiple-dose pharmacokinetics and pharmacodynamics of vedolizumab have been investigated following IV infusions of 0.5 and 2 mg/kg in patients with CD and infusion of 2, 6, and 10 mg/kg in patients with UC.

A short description of data set [1]: multiple-dose pharmacokinetics of vedolizumab, IV infusion, patients with UC. The format is in vivo, human. Particulars: dose range 2 to 10 mg/kg. The method, then:
as §1

For a further data set, the system named is patients with CD. Particulars: cited from earlier work.
Another data set addresses T2, lymphotoxin (TNF-β) (Homo sapiens, UniProt P01374).
T2 sequence (P01374 35-205): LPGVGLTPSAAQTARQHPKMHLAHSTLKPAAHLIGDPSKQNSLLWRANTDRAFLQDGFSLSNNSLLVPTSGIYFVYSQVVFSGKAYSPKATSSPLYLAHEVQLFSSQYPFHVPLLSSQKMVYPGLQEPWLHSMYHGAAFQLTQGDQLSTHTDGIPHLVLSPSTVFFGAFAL
Particulars: cited from earlier work.

Regarding “vedolizumab: humanized antibody (Ig) G1 mAb directed against the human lymphocyte integrin α4β7; CAS 943609-66-3”, the α4β7 receptor saturation entry in the data set with α4β7 receptor is “rapid and near complete”. The pharmacokinetics dose linearity entry in data set [1] was “generally linear”.

Turning to Adalimumab, in the data set on patients with CD (40 mg weekly or every other week, patients with CD who responded to adalimumab induction therapy), the maintaining clinical remission result was “effective”. Besides, the corticosteroid-sparing effects entry in the data set on patients with CD (patients with CD) is on record as “corticosteroid-sparing effects”. The “binding or inactivation of lymphotoxin (TNF-β)” value on lymphotoxin (TNF-β) is given as “does not bind or inactivate”.
